The results in this text go back to article PMC5814837 (Pest Management Science, 2017).

The target of assay [1] is mitochondrial succinate dehydrogenase (SDH) (Zymoseptoria tritici, UniProt F9X9V6+F9XH52+O42772, N33T/N34T/V106L). Put plainly: biochemical. Conditions: IC50.
Assay [2] deals with mitochondrial succinate dehydrogenase (SDH) (Zymoseptoria tritici, UniProt F9X9V6+F9XH52+O42772, N33T/N34T). Put plainly: biochemical. Particulars: IC50.

What is called IC50 is the concentration needed to halve the response being measured. Low readings indicate greater potency in that assay, high ones weaker potency in that assay. With `Cn1cc(C(=O)Nc2ccc(F)cc2-c2ccc(Cl)c(Cl)c2)c(C(F)F)n1` [Bixafen, bixafen], the values for the IC50 in assay [1] and in assay [2] were 44 ± 11 nM and 31 ± 17 nM, respectively.

In the case of `O=C(NCCc1ncc(C(F)(F)F)cc1Cl)c1ccccc1C(F)(F)F` [Fluopyram, fluopyram], the IC50 in assay [1] was determined as 12400 ± 1320 nM; in assay [2] it was 134 ± 67 nM.

`Cc1cc(OC(C)C)ccc1C(=O)C(C)(C)NC(=O)c1sccc1C` [Isofetamid, N‐[1,1‐dimethyl‐2‐(4‐isopropoxy‐o‐tolyl)‐2‐oxoethyl]‐3‐methylthiophene‐2‐carboxamide]: the IC50 in assay [1] was over 32000 nM; in assay [2] it was 46 ± 9 nM.
